row,Compound,melting point [°C]
1,Cc1ccccc1C=C(C(=O)O)C(=O)O,197 to 200
2,CCOc1ccc(F)cc1C(C)(C)CC(O)(Cn1ccc(=O)c2ccccc21)C(F)(F)F (centres undefined),195 to 196
3,CC1Sc2c(C(=O)O)c(=O)c3cc(F)c(N4CCOCC4)cc3n21 (centres undefined),192 to 198
4,O=C1c2ccccc2C(=O)N1CC(=O)N1c2ccccc2N(Cc2cccc(OCc3ccccc3)c2)C(=O)[C@H]2CCC[C@H]21 (relative stereo),196 to 198
5,CC(C)c1cccc(C(C)C)c1NC(=O)CN1CCN(CCSc2nc3cccc(CO)c3o2)CC1,138 to 139
6,N#Cc1ccc(OCc2ccncc2)cc1OC(C(=O)O)c1ccccc1Br (racemic),171 to 172
7,Cc1cc(C)c(Nc2nc(C)ccc2S(=O)(=O)c2ccc(F)c(Cl)c2)c(C)c1,139 to 141
8,COC(=O)CC(=O)c1ccccc1OCc1ccccc1C,38 to 42
9,FC1=Cc2ccccc2Nc2ccccc21,69 to 72
10,COc1cnc(OC)n2nc(NS(=O)(=O)c3c(F)cccc3C(F)(F)F)nc12,201 to 203
11,CCCCc1nc2c(N)nc3cccnc3c2n1CCCCNC(=O)c1ccc(C(OCCN(C)C)c2ccccc2)cc1 (centres undefined),105 to 108
12,COC(=O)c1ccc2c(c1)C(=O)NC(C(Cl)(Cl)Cl)O2 (centres undefined),218 to 220
13,Cc1nnc(-c2ccc3ccn(-c4ccc(S(C)(=O)=O)cc4)c3c2)o1,228 to 229
14,CCOC(=O)c1cc2c(Br)c(Br)oc2nc1C(=O)OCC,96 to 98
15,COC(=O)c1ccc(CCC(=O)/C=C/c2ccc(O)c(OC)c2)o1,93 to 94
16,CNC(=O)c1ccc(N2CCN(Cc3cnc4c(c3)[nH]c(=O)n3cccc43)CC2)cc1,286 to 289
17,Cc1ccsc1-c1cncc(Br)c1,58 to 59
18,COc1ccc(Cl)cc1C(=O)NC1Cc2cc(S(N)(=O)=O)c(OC)cc2OC1(C)C (centres undefined),228
19,C[C@H]1[C@H](O)C2(CC2)C(=O)N1c1ccc(C#N)c(Cl)c1,169 to 172
20,CCCCCCCCCCCCCCCCCCc1ccc(S(=O)(=O)Nc2nncs2)cc1,116 to 117
21,CCn1cc(C(=O)O)c(=O)c2cc(F)c(N3CC(C)(NC(=O)C(F)(F)F)C3)c(F)c21,196 to 210
22,COc1ccc(-c2cc(=O)n(Cc3c(Cl)cc(Cl)cc3Cl)nc2-c2ccc(OC)cc2)cc1,142 to 143
23,CCOC(=O)c1cc(=O)c2cc(OCCC(C)C)ccc2s1,83 to 84

row,Compound,melting point [°C]
1,OC1(C(Br)Br)O[C@H](COCc2ccccc2)[C@@H](OCc2ccccc2)[C@H](OCc2ccccc2)[C@H]1OCc1ccccc1 (some centres undefined),77 to 78
2,CCC(OC(=O)CS(C)(=O)=O)c1ccc(Cl)c2nc3n(c12)CCCN3c1ccc(Cl)cc1Cl (centres undefined),187 to 189
3,CCOC(=O)c1c(Cn2cnnc2)nc2cc(OC)c(OC)cc2c1-c1ccc(OC)c(OC(C)C)c1,170 to 171
4,COC(=O)N(c1ccccn1)C(C(=O)NC(Cc1ccccc1)C(O)CN1C2CCC(C2)N1C(=O)OC(C)(C)C)C(C)C (mixture of isomers),73 to 77
5,O=C(Nc1ccccn1)Nc1cnns1,227
6,N#Cc1ccc(CC(NC(=O)OCc2ccccc2)C(=O)Nc2cccc(C(=O)NCCC(=O)OCc3ccccc3)c2)cc1 (racemic),145 to 146
7,FC(F)(F)c1c[nH]c(-c2ccc(-c3nc(C(F)(F)F)c[nH]3)cc2)n1,325
8,C#CCN1C(=O)c2ccccc2C1O (centres undefined),157 to 159
9,CC(=O)NC1Cc2ccc(Cl)cc2C1 (centres undefined),117 to 119
10,CC(c1ccccc1)c1cccnn1 (centres undefined),43 to 48
11,COc1ccc2c3c1CCCC3C(CN1CCN(C)CC1)CC2 (centres undefined),115 to 116
12,COc1cc(F)c(C(=O)CCCCCBr)cc1OC,81 to 83
13,CC=Cn1c(=S)sc2c(=N)n(NC(=O)c3ccco3)cnc21,218
14,CCn1cc(C(=O)O)c(=O)c2cc(F)c(N3CC4CCC3CN4)nc21 (centres undefined),250 to 253
15,CNC(=O)c1cccc(CNc2n[nH]c3ncnc(Nc4cccc(Cl)c4)c23)c1,252 to 254
16,CC1Oc2ccc(CN3CCN(CC(=O)NC4CC4)CC3)cc2NC1=O (centres undefined),180 to 181
17,CC1(C)NC(=O)N(c2ccc([N+](=O)[O-])c(C(F)(F)F)c2)C1=O,149
18,CCCCOc1cc([N+](=O)[O-])c(OCCCC)cc1N=NN1CCOCC1,79 to 81
19,CCc1c([N+](=O)[O-])c(C(N)=O)nn1C[C@@H]1CCCN1C(=O)OC(C)(C)C,68 to 75
20,O=C(NC(Cc1ccccc1)C1CC(Cc2ccccc2)=NO1)c1ccccc1 (centres undefined),141 to 142
21,Nc1nc(NCCc2ccccc2)nc(-c2cc(Cl)ccc2Cl)n1,217 to 218
22,CCOC(=O)c1cccc2[nH]c(=O)oc(=O)c12,188 to 190
23,C=CCNc1cc(Cl)nnc1Cl,95 to 98

row,Compound,melting point [°C]
1,O=C(CBr)Nc1c(C(F)(F)F)cc(OCc2ccccc2)cc1C(F)(F)F,173 to 175
2,COCC1CN(c2ccc3c(c2)CCC(CCC(F)(F)F)O3)C(=O)O1 (centres undefined),110 to 111
3,CC(C)(C)OCc1cccc(-c2ccc3nc(-c4cccnc4)cn3c2)c1,220 to 222
4,Cc1nccn1-c1cc(N)cc(C(F)(F)F)c1,127 to 131
5,CON=C(C)c1ccc(C(=O)Nc2ccc(C(C)(C)C)cc2)cc1,154 to 155
6,OC[C@H]1COc2cc(Cl)ccc2O1,73 to 75
7,C#Cc1cccc(-n2c(=O)oc3ccc(-c4ccc(F)cc4F)cc3c2=O)c1,195 to 196
8,Cc1cnc(CCl)n2c1c(CCCl)c1ccccc12,160 to 161
9,CCOc1cc(C2=NN(C3CCCC3)C(=O)[C@H]3CC=CC[C@@H]23)ccc1OC (relative stereo),124 to 127
10,CCOC(=O)Oc1cc2c(s1)CCN([C@H](C(=O)OC)c1ccccc1Cl)C2,42 to 44
11,O=C(O)[C@@H]1[C@H](C(=O)O)N(Cc2ccccc2)C(=O)N1Cc1ccccc1,173
12,Cc1ccc2c(c1)C1CN(CCO)CCC1N2 (centres undefined),182 to 185
13,CCOC(=O)C(=O)C1C(=O)c2cccc3cccc1c23 (centres undefined),101 to 103
14,CC(C)n1nc(-c2c(NCc3ccncc3)nc(N)nc2-c2ccccc2)ccc1=O,222
15,CC(Cl)(Cl)C(=O)N1CCCC1C(=O)O (centres undefined),61 to 62
16,CC1(C)Oc2cccc(S(N)(=O)=O)c2O1,100 to 112
17,COc1ccc(OC)c(Nc2c(-c3ccc(S(C)(=O)=O)cc3)cnn(CC(F)(F)F)c2=O)c1,95 to 96
18,Cc1cc(C)c(C#N)c(-c2ccc(F)c(C)c2)c1,98 to 100
19,"CCN(CC)CCC1CCc2cc(O)ccc2C1 (single isomer, unassigned; (+))",102 to 104
20,CCCCCCOc1ccc(NC(=O)NCCC(C)(C)C)cc1,103 to 104
21,O=C(O)CSc1nc(Cl)cc(Cl)n1,120 to 122
22,COc1ccccc1N1CCN(CCCNC(=O)c2cccc3c(=O)c(C)c(C4CC4)oc23)CC1,139 to 141
23,CCCCCCCCNc1ccc(-c2cc3ccccc3o2)cc1,87 to 90
